One may read the IC50 as the concentration that inhibits the measured activity by half. Lower therefore signals greater potency.

This assay concerns the target T1, human olfactory receptor OR7D4 (Homo sapiens, UniProt Q8NG98).
T1 construct: transfected with a plasmid containing CRE-luciferase and a plasmid containing OR7D4; expressed in transfected cells; host or cells: HEK293T stably expressing olfactory chaperone proteins of the RTP family
T1 sequence (Q8NG98 1-312): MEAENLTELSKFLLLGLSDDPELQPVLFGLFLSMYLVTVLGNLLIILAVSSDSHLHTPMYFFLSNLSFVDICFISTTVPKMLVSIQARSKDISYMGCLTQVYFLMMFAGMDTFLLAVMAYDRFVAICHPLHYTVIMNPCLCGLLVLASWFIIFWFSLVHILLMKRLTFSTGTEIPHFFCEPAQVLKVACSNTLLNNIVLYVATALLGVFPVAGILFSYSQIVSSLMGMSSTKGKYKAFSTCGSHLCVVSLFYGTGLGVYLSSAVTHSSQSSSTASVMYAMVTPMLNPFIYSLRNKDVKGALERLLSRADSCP
Description: OR7D4 luciferase gene reporter assay (antagonism of agonist-induced activation). It counts as cell-based. The note with it: dose-response, luciferase assay; half decrease of the luciferase production obtained without antagonist; androstenone at 31.6 micromolar. On the procedure:
Cells were maintained in minimal essential medium (EMEM, Lonza) containing 10% fetal bovine serum (M10). HEK293T stably expressing olfactory chaperone proteins from the RTP family as described in WO 2006/002161 (introduced here as a reference) were generated by transfecting HEK293T cells with expression vector containing the chaperone gene sequences and a resistance gene to puromycin, using Lipofectamine 2000. A recombinant cell population was selected by adding 10 μg/ml of puromycin into the culture medium. Monoclonal populations were further obtained by limit dilution procedure. Briefly, a cell suspension was diluted to contain 1 cell per ml and this dilution was dispatched in poly-D-lysine-coated 96 well plates (200 μl of dilution per well). After 5 days of culture, the presence and number of cell colonies per well was checked under a phase contrast microscope. After 5 additional days of culture, wells containing a single colony were harvested and each collected population was amplified independently.
The 5-alpha-androst-16-ene-3-one, used as an agonist of the human olfactory receptor OR7D4 and the tested molecules were diluted at a concentration of 1 mole/litre (M) into dimethyl sulfoxide (DMSO) to generate stock solutions.
For concentration-response analysis, serial dilutions of the tested molecules were prepared from stock solutions in EMEM plated into 96-well plates.
Briefly, cells were plated on poly-D-lysine-coated 96-well plates (BD Bioscience, Erembodegem-Dorp, Belgium) and transfected with a plasmid containing CRE-luciferase and a plasmid containing OR7D4. Sixteen hours after transfection, the culture medium was replaced by serum-free EMEM containing the tested ligands at a determined concentration. After four hours of incubation at 37° C. degree, cells were lysed and processed for luminescence measurement according to the manufacturer's protocols. Luminescence emission was recorded on a Spectra Max M5 reader (Molecular Devices, Sunnyvale, Calif.). Results were expressed as percentage of the response induced by 10 μM of the adenylate cyclase activator Forskolin.
The ability of the compounds of the invention to inhibit the activity of androstenone on OR7D4 receptor was assessed by the luciferase assay described above.
To determine whether a molecule antagonizes OR7D4, this compound was introduced in the incubation medium of the Luciferase assay described above at a concentration of either 316 μM, 100 μM or 31.6 μM, along with the known activator of the receptor 5α-androst-16-en-3-one at a concentration of 31.6 μM. Molecules were considered as “hits” i.e., as having an antagonist effect on the receptor, if they induced a decrease of at least 50% of the luciferase production elicited upon activation of OR7D4 by 5α-androst-16-en-3-one.
Putative antagonist molecule libraries containing compound 1 and other types of molecules were used to identify antagonist of the receptor OR7D4. The screening campaign was performed on the OR7D4 with a series of 112 putative antagonist molecules. In this screening campaign, compound 1 was identified as a hit.
The compound 1 was further confirmed as antagonist of OR7D4 by performing dose-response analysis using the luciferase assay. Different concentrations of compound 1, ranging from 31.6 nM to 1 mM were tested on HEK293 cell expressing OR7D4 and stimulated with 31.6 μM of 5α-androst-16-en-3-one.
The antagonistic property of compound 1 on OR7D4 was further confirmed by measuring the response of the OR7D4 to 5α-androsta-4,16-dien-3-one in presence of compound 1, using the luciferase assay as describe hereinabove. The observed inhibition was in the same range as the one observed when stimulating the receptor with 5α-androst-16-en-3-one.
To further explore the antagonism on OR7D4, a series of compounds structurally related to compound 1 were synthesized and assessed as antagonists of OR7D4 by dose-response analysis using the luciferase assay. […]
A general note: Reporter assays use an easily measured gene product as a stand-in for the process of interest.
`CCCCCCC(/C=C/C(N)=O)=C\c1ccccc1` [Compound 27] registered a half-inhibitory concentration (IC50) of 14 µM. With `CCOc1ccccc1/C=C(/C=C(\C)C(=O)O)CC` [Compound 20] the figure was 32 µM; with `CCCCCC(/C=C(\C)CO)=C\c1ccccc1` [Compound 34], 19 µM; with `CCCCCC(/C=C/C(=O)OCC)=C\c1ccc(F)cc1` [Compound 45, ethyl (E)-4-((E)-4-fluorobenzylidene)non-2-enoate], 4 µM.

`CCCCCCC(/C=C/C(=O)OCC)=C\c1ccccc1` [Compound 13] came in with a half-maximal inhibitory concentration (IC50) of 7 µM. For `CCCCCCC(=C\c1ccccc1)/C=C(\C)C(C)=O` [Compound 29, 5-benzylidene-3-methylundec-3-en-2-one] the value was 1 µM; for “(E)-4-((E)-4-fluorobenzylidene)dec-2-enal [Compound 38]”, 25 µM.

Compound `CCCc1ccccc1/C=C/C=C/C=O` [Compound 37, (2E,4E)-5-(2-propylphenyl)penta-2,4-dienal] had an IC50 of 126 µM.

With `CCCCCCC(/C=C(\C)C#N)=C\c1ccccc1` [Compound 17], the half-maximal inhibitory concentration (IC50) turned out to be 12 µM. In the case of `CCCCCCC(/C=C(\C)COCC)=C\c1ccccc1` [Compound 43, ((E)-2-((E)-3-ethoxy-2-methylprop-1-en-1-yl)oct-1-en-1-yl)benzene], the IC50 came to 126 µM. As for `CCCCCCC(/C=C/C#N)=C\c1ccccc1` [Compound 16, 4-benzylidenedec-2-enenitrile], the IC50 came to 8 µM. As to `C=CCCCCC(=C\c1ccccc1)/C=C(\C)C(=O)OCC` [Compound 8], the IC50 was determined as 1 µM. With `CCCCCCC(/C=C/C(=O)OC)=C\c1ccccc1` [Compound 10] the figure was 2 µM; with `CCCCCCC(=C\c1ccccc1)/C=C(\C)C(=O)O` [Compound 21, 4-benzylidene-2-methyldec-2-enoic Acid], 62 µM. With `CCCCCCC(/C=C/C(=O)OCC)=C\c1ccc(F)cc1` [Compound 5, ethyl (E)-4-((E)-4-fluorobenzylidene)dec-2-enoate] the figure was 14 µM. The compound `CCCCCCC(/C=C(\C)COCC)=C\c1ccc(F)cc1` [Compound 44, 1-((E)-2-((E)-3-ethoxy-2-methylprop-1-en-1-yl)oct-1-en-1-yl)-4-fluorobenzene] had an IC50 of 22 µM. This IC50 is about 1.6-fold higher than that of the compound before. Turning to `COc1cccc(/C=C/C=C(\C)C=O)c1` [Compound 36, (2E,4E)-5-(3-methoxyphenyl)-2-methylpenta-2,4-dienal], the concentration for half-maximal inhibition (IC50) stood at 79 µM. For `CCCCCCC(/C=C/C(C)=O)=C\c1ccccc1` [Compound 30, (E)-5-((E)-benzylidene)undec-3-en-2-one] the value was 6 µM; for `CCOC(=O)/C(C)=C/C=C/c1cccc(OC)c1` [Compound 2, ethyl (2E,4E)-5-(3-methoxyphenyl)-2-methylpenta-2,4-dienoate], 25 µM; for `CCCCCC(/C=C(\C)C=O)=C\c1ccccc1` [Compound 40], 29 µM. `CCCCCC(/C=C/C(=O)OCC)=C\c1ccccc1` [Compound 14] came in with an IC50 of 14 µM.

As to `CCOC(=O)/C(C)=C/C(=C/c1ccccc1)C(C)CC(C)(C)C` (stereo not drawn) [Compound 11], the IC50 was determined as 8 µM. In the case of `CCCC(/C=C(\C)C=O)=C\c1ccccc1` [Compound 41], the 50% inhibitory concentration (IC50) amounted to 187 µM. For `CCCCCCC(=C\c1ccccc1)/C=C(\C)C(N)=O` [Compound 23, (E)-4-((E)-benzylidene)-2-methyldec-2-enamide] the value was 1 µM; for `CCCCCCC(/C=C/CO)=C\c1ccc(F)cc1` [Compound 33, (E)-4-((E)-4-fluorobenzylidene)dec-2-en-1-ol], 18 µM. With `CCOC(=O)/C(C)=C/C(=C/c1ccccc1)CC1CCCC1` [Compound 12] the figure was 8 µM; with `CCCC(/C=C(\C)CO)=C\c1ccccc1` [Compound 35], 53 µM.

`CCCc1ccccc1/C=C/C=C/CO` [Compound 32, (2E,4E)-5-(2-propylphenyl)penta-2,4-dien-1-ol] returned an IC50 of 126 µM. The compound `CCCCCCC(/C=C/C=O)=C\c1ccccc1` [Compound 39, (E)-4-((E)-benzylidene)dec-2-enal] came in with an IC50 of 6 µM. Turning to `CCCCCCC(=C\c1ccc(C#N)cc1)/C=C(\C)C(=O)OCC` [Compound 7, ethyl (E)-4-((E)-4-cyanobenzylidene)-2-methyldec-2-enoate], the IC50 was 13 µM. For `CCCCCC(/C=C/C(=O)OC)=C\c1ccc(F)cc1` [Compound 46, methyl (2E,4E)-4-(4-fluorobenzylidene)-2-nonenoate] the value was 25 µM; for `CCCCCCC(/C=C(\C)COC)=C\c1ccccc1` [Compound 42, ((E)-2-((E)-3-methoxy-2-methylprop-1-en-1-yl)oct-1-en-1-yl)benzene], 25 µM. As to `CCCCCc1ccccc1/C=C/C=C/C(=O)OCC` [Compound 4, ethyl (2E,4E)-5-(2-pentylphenyl)penta-2,4-dienoate], the 50% inhibitory concentration (IC50) amounted to 16 µM. Take `CCOC(=O)/C(C)=C/C(=C/c1ccccc1OCC)CC` [Compound 6, ethyl (E)-4-((E)-2-ethoxybenzylidene)-2-methylhex-2-enoate]: the IC50 amounted to 25 µM. `COc1cccc(/C=C/C=C(\C)CO)c1` [Compound 31, (2E,4E)-5-(3-methoxyphenyl)-2-methylpenta-2,4-dien-1-ol] gave a half-inhibitory concentration (IC50) of 63 µM. Take `CCCCCCC(=C\c1ccc(C#N)cc1)/C=C(\C)C(=O)O` [Compound 19, (E)-4-((E)-4-cyanobenzylidene)-2-methyldec-2-enoic Acid]: the half-inhibitory concentration (IC50) came to 45 µM. Turning to `CCCCCCC(=C\c1ccccc1)/C=C(\C)C(=O)N(C)C` [Compound 28, (E)-4-((E)-benzylidene)-N,N,2-trimethyldec-2-enamide], the half-inhibitory concentration (IC50) is 2 µM.

`CCCC(/C=C/C(=O)OCC)=C\c1ccccc1` [Compound 15] yielded an IC50 of 85 µM. This IC50 is about 42-fold higher than that of the compound before. In turn, `CCCc1ccccc1/C=C/C=C/C(=O)OCC` [Compound 3, ethyl (2E,4E)-5-(2-propylphenyl)penta-2,4-dienoate] came in with an IC50 of 50 µM. With `CCCCCCC(/C=C/C(=O)O)=C\c1ccccc1` [Compound 22], the half-inhibitory concentration (IC50) worked out at 75 µM. With `CCc1cccc(/C=C(C)/C=C/C(=O)N(C)C)c1` [Compound 25, (2E,4E)-5-(3-ethylphenyl)-N,N,4-trimethylpenta-2,4-dienamide] the figure was 126 µM; with `CCCCCCC(=C\c1ccccc1)/C=C(\C)C(=O)NC` [Compound 24, (E)-4-((E)-benzylidene)-N,2-dimethyldec-2-enamide], 2 µM.
